# Experimental data as given in patent publication US20200289392A1, “A MELANOGENESIS INHIBITOR COMPOSITION” (Dow Global Technologies LLC, priority 2017, published 2020).
# Target: T1, tyrosinase (Homo sapiens, UniProt P14679)
# T1 sequence (P14679 19-529): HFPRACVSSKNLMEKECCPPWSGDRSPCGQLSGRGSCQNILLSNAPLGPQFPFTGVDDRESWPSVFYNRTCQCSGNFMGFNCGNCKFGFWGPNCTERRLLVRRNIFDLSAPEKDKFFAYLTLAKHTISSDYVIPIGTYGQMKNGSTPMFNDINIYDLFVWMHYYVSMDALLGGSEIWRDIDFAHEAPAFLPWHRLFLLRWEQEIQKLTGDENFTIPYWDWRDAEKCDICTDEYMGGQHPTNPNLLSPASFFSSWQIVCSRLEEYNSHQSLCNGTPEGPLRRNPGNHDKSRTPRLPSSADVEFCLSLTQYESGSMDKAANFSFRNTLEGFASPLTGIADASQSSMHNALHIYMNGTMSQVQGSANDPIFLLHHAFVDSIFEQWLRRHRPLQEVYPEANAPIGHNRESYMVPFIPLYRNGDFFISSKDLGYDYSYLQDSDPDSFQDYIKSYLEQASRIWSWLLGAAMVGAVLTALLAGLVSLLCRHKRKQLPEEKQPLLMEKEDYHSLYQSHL
# Assay: Tyrosinase inhibition
# Assay type: biochemical
# Conditions: 0.1 wt % active concentration; compared to 0.1 wt % kojic acid
row,tyrosinase inhibition activity compared to that of kojic acid,SMILES
1,negligible,"COc1cc(/C=[N+](\[O-])C(C)C)ccc1O [VAN-IPHA, (Z)—N-(4-hydroxy-3-methoxybenzylidine)propan-2-amine oxide]"
2,about 60%,"CC(C)/[N+]([O-])=C/c1ccc(O)cc1 [pHBz-IPHA, (Z)—N-(4-hydroxybenzylidene)propan-2-amine oxide]"
